SMILES strings stand for the structures.

The target in this assay is TrkA receptor (Homo sapiens (Human), UniProt P04629). As to the kind of experiment: DiscoverX PathHunter TrkA functional assay (U2OS cells, NGF stimulated). Format: cell-based. The settings on record: U2OS cells expressing TrkA-Prolink and Shc1-EA; compound 1 hour, then EC80 of NGF for 3 hours; luminescence. As for the experimental part: TrkA functional activity was measured using a DiscoverX PathHunter assay. In this assay, U2OS cells are express TrkA receptor as a fusion with the weakly complementing fragment of B-galactosidase, which DiscoverX calls “Prolink (PK)”; additionally, Shc1 is fused with a larger fragment, which is called “Enzyme Acceptor (EA)”. Activation of the TrkA receptor, upon NGF addition, results in the kinase domain being phosphorylated, resulting in subsequent recruitment of Shc1-EA protein. That recruitment results in an active B-galactosidase enzyme that is detected by addition of a chemiluminescent substrate.
Sequence of TrkA receptor (P04629 33-796): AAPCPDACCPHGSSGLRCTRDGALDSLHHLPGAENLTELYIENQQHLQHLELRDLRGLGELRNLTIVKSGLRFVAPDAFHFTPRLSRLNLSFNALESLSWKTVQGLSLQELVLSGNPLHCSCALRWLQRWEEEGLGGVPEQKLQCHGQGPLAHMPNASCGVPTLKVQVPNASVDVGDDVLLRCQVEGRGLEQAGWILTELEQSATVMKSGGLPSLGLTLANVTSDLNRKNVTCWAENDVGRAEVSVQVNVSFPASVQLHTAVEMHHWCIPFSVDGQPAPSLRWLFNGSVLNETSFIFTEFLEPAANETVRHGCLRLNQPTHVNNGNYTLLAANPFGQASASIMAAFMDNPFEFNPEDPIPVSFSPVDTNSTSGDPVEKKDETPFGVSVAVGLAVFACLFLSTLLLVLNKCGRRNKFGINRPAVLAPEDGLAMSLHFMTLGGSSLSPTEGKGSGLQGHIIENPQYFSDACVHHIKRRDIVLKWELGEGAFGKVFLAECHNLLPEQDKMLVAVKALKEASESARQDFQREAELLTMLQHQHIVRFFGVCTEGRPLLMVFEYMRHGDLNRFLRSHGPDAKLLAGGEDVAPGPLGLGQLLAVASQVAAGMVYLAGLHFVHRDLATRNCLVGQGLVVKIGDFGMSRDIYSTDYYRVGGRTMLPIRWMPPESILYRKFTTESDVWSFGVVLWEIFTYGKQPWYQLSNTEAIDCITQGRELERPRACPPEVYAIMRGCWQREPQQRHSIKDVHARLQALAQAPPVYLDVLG
All reagents were purchased from DiscoverX, except for the receptor agonists (NGF, BDNF, NT3) which were purchased from Peprotech. Cells were expanded and frozen into cryovials (TrkA p75 @ passage 13, 1.5×10^7 cells/vial; TrkC p75 @ passage 11, 1.5×10^7 cells/vial in InVitrogen Recovery Cell Freezing media), and stored in the vapor phase of liquid nitrogen, and thawed immediately before use. Thawed cells were added to a 384-well plate (BD Falcon 384-well white/clear, TC surface 120 uL assay plates (353963), 20 uL of 0.375e6 cells/mL=>7500 cells/well), and allowed to incubate overnight. Compound (10 mM starting dose: 202.5 nL compound yielding 0.81% DMSO final in total assay volume and starting doses 81 uM) was added the following morning and allowed to incubate on cells for 1 hour. Then, 5 uL EC80 of agonist (NGF for TrkA; BDNF for TrkB; NT3 for TrkC) was added and allowed to incubate for 3 hours at room temperature. DiscoverX PathHunter detection reagent is added (12 uL to plate and components diluted in parts as per kit instructions) and the plate is further incubated for 1 hour in the dark. The plate is read via luminescence on the Perkin Elmer Envision.
One may read the IC50 as the concentration needed to halve the response being measured. `O=C(Nc1c(-c2ccccc2)nc2ccccn12)Nc1c(-c2ccccc2)nc2ccccn12` [Compound 1, 1,3-bis(2-phenylimidazo[1,2-a]pyridin-3-yl)urea]: 82 nM corresponded to half-maximal inhibition (IC50).
On to `O=C(Nc1ccccn1)Nc1cc(-c2ccccc2)nn1-c1ccccc1` [Compound 2, 1-(1,3-diphenyl-1H-pyrazol-5-yl)-3-pyridin-2-ylurea], for which the IC50 is 160 nM.
Regarding `Cc1cc(NC(=O)Nc2cc(C)nn2-c2ccccc2)n(-c2ccccc2)n1` [Compound 3, 1,3-bis(3-methyl-1-phenyl-1H-pyrazol-5-yl)urea], it took 2700 nM to reach half-maximal inhibition (IC50).
With `Cc1cc(NC(=O)Nc2cccc3ccccc23)n(-c2ccccc2)n1` [Compound 4, 1-(3-methyl-1-phenyl-1H-pyrazol-5-yl)-3-naphthalen-1-ylurea], the IC50 is 590 nM. This IC50 is about 4.6-fold lower than that of the compound before.
With `Cc1cc(NC(=O)Nc2cccc(Br)n2)n(-c2ccccc2)n1` [Compound 5, 1-(6-bromopyridin-2-yl)-3-(3-methyl-1-phenyl-1H-pyrazol-5-yl)urea], the IC50 was 4800 nM.
As for `Cc1cc(NC(=O)Nc2ccccc2-c2ccccc2)n(-c2ccccc2)n1` [Compound 6, 1-biphenyl-2-yl-3-(3-methyl-1-phenyl-1H-pyrazol-5-yl)urea], the figure is 420 nM; as for `Cc1cc(NC(=O)Nc2cccc(C)c2C)n(-c2ccccc2)n1` [Compound 7, 1-(2,3-dimethylphenyl)-3-(3-methyl-1-phenyl-1H-pyrazol-5-yl)urea], 4800 nM.
Under `Cc1cc(NC(=O)Nc2cc(Br)ccn2)n(-c2ccccc2)n1` [Compound 8, 1-(4-bromopyridin-2-yl)-3-(3-methyl-1-phenyl-1H-pyrazol-5-yl)urea] stands 3000 nM; under `O=C(Nc1ccccn1)Nc1cc(-c2ccncc2)nn1-c1ccccc1` [Compound 9, 1-(1-phenyl-3-pyridin-4-yl-1H-pyrazol-5-yl)-3-pyridin-2-ylurea], 350 nM; under `Cc1cc(NC(=O)Nc2ccccn2)n(-c2ccccc2)n1` [Compound 10, 1-(3-methyl-1-phenyl-1H-pyrazol-5-yl)-3-pyridin-2-ylurea], 1800 nM.
`COc1ccc(NC(=O)Nc2cc(C)nn2-c2ccccc2)nc1` [Compound 11, 1-(5-methoxypyridin-2-yl)-3-(3-methyl-1-phenyl-1H-pyrazol-5-yl)urea] came in with an IC50 of 3400 nM.
As for `Cc1ccc(NC(=O)Nc2ccccn2)c(-c2ccccc2)n1` [Compound 12, 1-(6-methyl-2-phenylpyridin-3-yl)-3-pyridin-2-ylurea], the figure is 1100 nM; as for `Cc1ncc(NC(=O)Nc2ccccc2-c2ccccc2)c(-c2ccccc2)n1` [Compound 13, 1-biphenyl-2-yl-3-(2-methyl-4-phenylpyrimidin-5-yl)urea], 2300 nM; as for `Cc1onc(-c2ccccc2)c1NC(=O)NCc1ccccc1C(F)(F)F` [Compound 14, 1-(5-methyl-3-phenylisoxazol-4-yl)-3-[2-(trifluoromethyl)benzyl]urea], 350 nM.
Regarding `Cc1ncc(NC(=O)Nc2cccc3ccccc23)c(-c2ccccc2)n1` [Compound 15, 1-(2-methyl-4-phenylpyrimidin-5-yl)-3-naphthalen-1-ylurea], inhibition was half-maximal at 4100 nM (IC50).
For the compound `O=C(Nc1cccc2ccccc12)Nc1c(-c2ccccc2)nc2sccn12` [Compound 16, 1-naphthalen-1-yl-3-(6-phenylimidazo[2,1-b][1,3]thiazol-5-yl)urea], the IC50 is 290 nM.
As for `Cc1ncc(NC(=O)Nc2cnc(C)nc2-c2ccccc2)c(-c2ccccc2)n1` [Compound 17, 1,3-bis(2-methyl-4-phenylpyrimidin-5-yl)urea], the figure is 1400 nM.
Regarding `CSc1ncc(NC(=O)Nc2cnc(SC)nc2-c2ccccc2)c(-c2ccccc2)n1` [Compound 18, 1,3-bis[2-(methylsulfanyl)-4-phenylpyrimidin-5-yl]urea], the IC50 turned out to be 280 nM. This IC50 is about 5-fold lower than that of the compound before.
`Cc1ncc(NC(=O)Nc2ccccn2)c(-c2ccccc2)n1` [Compound 20, 1-(2-methyl-4-phenylpyrimidin-5-yl)-3-pyridin-2-ylurea]: the IC50 was 4000 nM.
`Cc1ncc(NC(=O)Nc2c(-c3ccccc3)nc3ccccn23)c(-c2ccccc2)n1` [Compound 21, 1-(2-methyl-4-phenylpyrimidin-5-yl)-3-(2-phenylimidazo[1,2-a]pyridin-3-yl)urea] gave a half-maximal inhibitory concentration (IC50) of 150 nM.
`O=C(Nc1ccc(C(F)(F)F)cc1Cl)Nc1c(-c2ccccc2)nc2ccccn12` [Compound 22, 1-[2-chloro-4-(trifluoromethyl)phenyl]-3-(2-phenylimidazo[1,2-a]pyridin-3-yl)urea] came in with an IC50 of 4200 nM.
The compound `O=C(Nc1ccc(C(F)(F)F)cc1)Nc1c(-c2ccccc2)nc2ccccn12` [Compound 23, 1-(2-phenylimidazo[1,2-a]pyridin-3-yl)-3-[4-(trifluoromethyl)phenyl]urea] displayed an IC50 of 4300 nM. This IC50 and that of the compound before are within 1.5-fold of each other.
Under `O=C(Nc1cccnc1-c1ccccc1)Nc1c(-c2ccccc2)nc2ccccn12` [Compound 24, 1-(2-phenylimidazo[1,2-a]pyridin-3-yl)-3-(2-phenylpyridin-3-yl)urea] stands 450 nM.
The compound `Cc1cc(NC(=O)Nc2c(-c3ccccc3)nc3ccccn23)n(-c2ccccc2)n1` [Compound 25, 1-(3-methyl-1-phenyl-1H-pyrazol-5-yl)-3-(2-phenylimidazo[1,2-a]pyridin-3-yl)urea] had a half-maximal inhibitory concentration (IC50) of 520 nM.
`Cc1nc(-c2ccccc2)c(NC(=O)Nc2c(-c3ccccc3)nc3ccccn23)s1` [Compound 26, 1-(2-methyl-4-phenyl-1,3-thiazol-5-yl)-3-(2-phenylimidazo[1,2-a]pyridin-3-yl)urea] yielded an IC50 of 48 nM. This IC50 lies about 11-fold lower than the previous one.
For the compound `Cn1ccnc1-c1cccc(NC(=O)Nc2c(-c3ccccc3)nc3ccccn23)c1` [Compound 27, 1-[3-(1-methyl-1H-imidazol-2-yl)phenyl]-3-(2-phenylimidazo[1,2-a]pyridin-3-yl)urea], the midpoint of inhibition, the IC50, lay at 1600 nM.
Turning to `CCOC(=O)c1nc2ccccn2c1NC(=O)Nc1c(-c2ccccc2)nc2ccccn12` [Compound 28, ethyl 3-{[(2-phenylimidazo[1,2-a]pyridin-3-yl)carbamoyl]amino} imidazo[1,2-a]pyridine-2-carboxylate], half-maximal inhibition (IC50) was put at 460 nM.
The compound `O=C(Nc1c(-c2ccccc2)nc2ccccn12)Nc1c(-n2cccn2)nc2ccccn12` [Compound 29, 1-(2-phenylimidazo[1,2-a]pyridin-3-yl)-3-[2-(1H-pyrazol-1-yl)imidazo[1,2-a]pyridin-3-yl]urea] had an IC50 of 1400 nM. This IC50 is about 3-fold higher than that of the compound before.
As for `O=C(Nc1c(-c2ccccc2)nc2ccccn12)Nc1c(-c2ccccc2)nc2ncccn12` [Compound 30, 1-(2-phenylimidazo[1,2-a]pyridin-3-yl)-3-(2-phenylimidazo[1,2-a]pyrimidin-3-yl)urea], the figure is 1500 nM.
In the case of `O=C(Nc1c(-c2ccccc2)nc2ccccn12)Nc1c(-c2ccccc2)nc2ccc(Cl)nn12` [Compound 31, 1-(6-chloro-2-phenylimidazo[1,2-b]pyridazin-3-yl)-3-(2-phenylimidazo[1,2-a]pyridin-3-yl)urea], the IC50 was found to be 1000 nM. Against the preceding compound, the IC50 is about 1.5-fold lower.
For the compound `CNC(=O)c1nc2ccccn2c1NC(=O)Nc1c(-c2ccccc2)nc2ccccn12` [Compound 32, N-methyl-3-{[(2-phenylimidazo[1,2-a]pyridin-3-yl)carbamoyl]amino}imidazo[1,2-a]pyridine-2-carboxamide], the IC50 is 1000 nM. In other words, the single-digit micromolar range.
`Cc1nc(-c2ccccc2)c(NC(=O)Nc2c(-c3ccccc3)ncn2C)s1` [Compound 33, 1-(1-methyl-4-phenyl-1H-imidazol-5-yl)-3-(2-methyl-4-phenyl-1,3-thiazol-5-yl)urea] displayed an IC50 of 4000 nM.
As for `Cc1nc(-c2ccccc2)c(NC(=O)Nc2c(-c3ccccc3)nc(C)n2C)s1` [Compound 34, 1-(1,2-dimethyl-4-phenyl-1H-imidazol-5-yl)-3-(2-methyl-4-phenyl-1,3-thiazol-5-yl)urea], the figure is 4100 nM.
In the case of `Cc1nc(-c2ccccc2)c(NC(=O)Nc2sc(C)nc2-c2ccccc2)s1` [Compound 35, 1,3-bis(2-methyl-4-phenyl-1,3-thiazol-5-yl)urea], it took 610 nM to reach half-maximal inhibition (IC50).
The compound `Cc1ncc(NC(=O)Nc2sc(C)nc2-c2ccccc2)c(-c2ccccc2)n1` [Compound 36, 1-(2-methyl-4-phenylpyrimidin-5-yl)-3-(2-methyl-4-phenyl-1,3-thiazol-5-yl)urea] gave an IC50 of 2300 nM.
The compound `Cc1nc(-c2ccccc2)c(NC(=O)Nc2cccnc2-c2ccccc2)s1` [Compound 37, 1-(2-methyl-4-phenyl-1,3-thiazol-5-yl)-3-(2-phenylpyridin-3-yl)urea] showed an IC50 of 1800 nM.
In turn, `O=C(NCc1cc(F)ccc1C(F)(F)F)Nc1ccnn1-c1ccccc1` [Compound 38, 1-[5-fluoro-2-(trifluoromethyl)benzyl]-3-(1-phenyl-1H-pyrazol-5-yl)urea] came in with an IC50 of 1100 nM.
In turn, `O=C(NCc1ccc(F)cc1C(F)(F)F)Nc1ccnn1-c1ccccc1` [Compound 39, 1-[4-fluoro-2-(trifluoromethyl)benzyl]-3-(1-phenyl-1H-pyrazol-5-yl)urea] returned an IC50 of 1400 nM.

(Values after patent US9896447B2, “TrkA kinase inhibitors, compositions and methods thereof” (MERCK SHARP & DOHME CORP., priority 2013, dated 2018).)
